Measurements reported in patent publication US8455497B2, “Inhibitors of aspartyl protease” (Vertex Pharmaceuticals Incorporated, priority 1999, dated 2013).
Read-outs that look alike come from different tables or passages of the source.

Legend:
HIV-1 (strain IIIB) = experiment: Antiviral activity assay in MT4 cells (propidium iodide based); type: cell-based; conditions: wild type HIV-1 virus, MT4 cells, read-out: Wildtype virus - IC50
Summary of the method: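 MT4 cells infected with HIV-1 IIIB (MOI 100×TCID50, 1 hr, 37°C), diluted 6-fold into wells with serially diluted compound, incubated 5 days. Cells lysed with Nonidet-40; DNA content per well estimated by propidium iodide staining as the viability read-out, with mock-infected controls.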

[1] = tested on: EP13 multi protease inhibitor resistant virus; experiment: Anti-viral activity against resistant virus EP13 in MT4 cells; type: cell-based, HIV-1
Summary of the method: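 MT4 cells infected for 1 h at 37 °C, MOI 100×TCID50, then diluted 6-fold onto pre-diluted compound and cultured 5 days (5% CO2). Viable-cell DNA content estimated by propidium iodide. EP13 carries protease mutations M46I, L63P, A71V, V82F/L, I84V, no RT mutations.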

[2] = tested on: D545701-14 multi protease inhibitor resistant virus; experiment: Anti-viral activity against resistant virus D545701-14 in MT4 cells; type: cell-based, HIV-1
[3] = Human immunodeficiency virus 1, IIIB
[4] = Human immunodeficiency virus 1, MT4, read-out: EP13 mutant IC50, EP13 multi protease inhibitor resistant virus, MT4 cells
[5] = Human immunodeficiency virus 1, MT4, read-out: D545701-14 mutant - IC50, D545701-14 multi protease inhibitor resistant virus, MT4 cells
[6] = Human immunodeficiency virus 1, MT4, read-out: EP13 mutant IC50
[7] = Human immunodeficiency virus 1, MT4, read-out: D545701-14 mutant - IC50
[8] = EP13 multi protease inhibitor resistant virus, MT4 cells, read-out: EP13 mutant IC50
[9] = D545701-14 multi protease inhibitor resistant virus, MT4 cells, read-out: D545701-14 mutant - IC50

Row | Compound | IC50 (HIV-1 (strain IIIB); [3]) [nM] | IC50 [1, 4] [nM] | IC50 [2, 5] [nM] | IC50 [1, 6] [nM] | IC50 [2, 7] [nM] | IC50 (HIV-1 (strain IIIB)) [nM] | IC50 [1, 8] [nM] | IC50 [2, 9] [nM]
1 | CC(C)CN(C[C@@H](O)[C@H](Cc1ccc(OCc2cccc(C#N)c2)cc1)NC(=O)O[C@H]1CO[C@H]2OCC[C@H]21)S(=O)(=O)c1ccc2c(c1)OCCO2 [Compound 338, (3R,3aS,6aR)-hexahydrofuro[2,3-b]furan-3-yl (1S,2R)-1-{4-[(3-cyanobenzyl)oxy]benzyl}-3-[(2,3-dihydro-1,4-benzodioxin-6-ylsulfonyl)(isobutyl)amino]-2-hydroxypropylcarbamate] | 1 to 10 | 1 to 10 | 1 to 10 |  |  |  |  | 
2 | CC(C)CN(C[C@@H](O)[C@H](Cc1ccc(OCc2cccc(C#N)c2)cc1)NC(=O)O[C@H]1CO[C@H]2OCC[C@H]21)S(=O)(=O)c1ccc2c(c1)OC(F)(F)O2 [Compound 342, (3R,3aS,6aR)-hexahydrofuro[2,3-b]furan-3-yl (1S,2R)-1-{4-[(3-cyanobenzyl)oxy]benzyl}-3-[[(2,2-difluoro-1,3-benzodioxol-5-yl)sulfonyl](isobutyl)amino]-2-hydroxypropylcarbamate] | 10 to 100 | 10 to 100 | 10 to 100 |  |  |  |  | 
3 | CC(=O)Oc1ccc(S(=O)(=O)N(CC(C)C)C[C@@H](O)[C@H](Cc2ccc(OCc3csc(C)n3)cc2)NC(=O)O[C@H]2CO[C@H]3OCC[C@H]32)cc1C [Compound 347, 4-{[((2R,3S)-3-({[(3R,3aS,6aR)-hexahydrofuro[2,3-b]furan-3-yloxy]carbonyl}amino)-2-hydroxy-4-{4-[(2-methyl-1,3-thiazol-4-yl)methoxy]phenyl}butyl)(isobutyl)amino]sulfonyl}-2-methylphenyl acetate] | 1 to 10 | 1 to 10 | 1 to 10 |  |  |  |  | 
4 | Cc1nc(COc2ccc(C[C@H](NC(=O)O[C@H]3CO[C@H]4OCC[C@H]43)[C@H](O)CN(CC(C)C)S(=O)(=O)c3ccc(O)c(C)c3)cc2)cs1 [Compound 348, (3R,3aS,6aR)-hexahydrofuro[2,3-b]furan-3-yl (1S,2R)-2-hydroxy-3-[[(4-hydroxy-3-methylphenyl)sulfonyl](isobutyl)amino]-1-{4-[(2-methyl-1,3-thiazol-4-yl)methoxy]benzyl}propylcarbamate] | 1 to 10 | 1 to 10 | 1 to 10 |  |  |  |  | 
5 | CC(C)CN(C[C@@H](O)[C@H](Cc1ccc(OS(=O)(=O)c2ccc3c(c2)OCO3)cc1)NC(=O)O[C@H]1CO[C@H]2OCC[C@H]21)S(=O)(=O)c1ccc2c(c1)OCO2 [Compound 349, 4-{(2S,3R)-2-({[(3R,3aS,6aR)-hexahydrofuro[2,3-b]furan-3-yloxy]carbonyl}amino)-4-[(1,3-benzodioxol-5-ylsulfonyl)(isobutyl)amino]-3-hydroxybutyl}phenyl 1,3-benzodioxole-5-sulfonate] | 1 to 10 | 1 to 10 | 1 to 10 |  |  |  |  | 
6 | CC(C)CN(C[C@@H](O)[C@H](Cc1ccc(OCCc2ccccc2)cc1)NC(=O)O[C@H]1CO[C@H]2OCC[C@H]21)S(=O)(=O)c1ccc2c(c1)OCO2 [Compound 352, (3R,3aS,6aR)hexahydrofuro[2,3-b]furan-3-yl (1S,2R)-3[(1,3-benzodioxol-5-ylsulfonyl)(isobutyl)amino]-2-hydroxy-1-[4-(phenethyloxy)benzyl]propylcarbamate] | < 1 | < 1 | 1 to 10 |  |  |  |  | 
7 | CC(=O)NCCOc1ccc(C[C@H](NC(=O)O[C@H]2CO[C@H]3OCC[C@H]32)[C@H](O)CN(CC(C)C)S(=O)(=O)c2ccc3c(c2)OCO3)cc1 [Compound 355, (3R,3aS,6aR)hexahydrofuro[2,3-b]furan-3-yl (1S,2R)-3-[(1,3-benzodioxol-5-ylsulfonyl)(isobutyl)amino]-2-hydroxy-1-[4-(2-[acetylamino]ethoxy)benzyl]propylcarbamate] | 10 to 100 | 10 to 100 | 10 to 100 |  |  |  |  | 
8 | COC(=O)NCCOc1ccc(C[C@H](NC(=O)O[C@H]2CO[C@H]3OCC[C@H]32)[C@H](O)CN(CC(C)C)S(=O)(=O)c2ccc3c(c2)OCO3)cc1 [Compound 356, (3R,3aS,6aR)hexahydrofuro[2,3-b]furan-3-yl (1S,2R)-3-[(1,3-benzodioxol-5-ylsulfonyl)(isobutyl)amino]-2-hydroxy-1-[4-(2-[(methoxycarbonyl)amino]ethoxy)benzyl]propylcarbamate] | 1 to 10 |  |  | 1 to 10 | < 1 |  |  | 
9 | CC(C)CN(C[C@@H](O)[C@H](Cc1ccc(OCCNS(C)(=O)=O)cc1)NC(=O)O[C@H]1CO[C@H]2OCC[C@H]21)S(=O)(=O)c1ccc2c(c1)OCO2 [Compound 357, (3R,3aS,6aR)hexahydrofuro[2,3-b]furan-3-yl (1S,2R)-3-[(1,3-benzodioxol-5-ylsulfonyl)(isobutyl)amino]-2-hydroxy-1-[4-(2-[(methylsulfonyl)amino]ethoxy)benzyl]propylcarbamate] | 10 to 100 |  |  | 1 to 10 | 10 to 100 |  |  | 
10 | CNC(=O)NCCOc1ccc(C[C@H](NC(=O)O[C@H]2CO[C@H]3OCC[C@H]32)[C@H](O)CN(CC(C)C)S(=O)(=O)c2ccc3c(c2)OCO3)cc1 [Compound 358, (3R,3aS,6aR)hexahydrofuro[2,3-b]furan-3-yl (1S,2R)-3-[(1,3-benzodioxol-5-ylsulfonyl)(isobutyl)amino]-2-hydroxy-1-[4-(2-[([methylamino]carbonyl)amino]ethoxy)benzyl]propylcarbamate] | 10 to 100 |  |  | 10 to 100 | 10 to 100 |  |  | 
11 | CC(C)CN(C[C@@H](O)[C@H](Cc1ccc(OCCN(C)C)cc1)NC(=O)O[C@H]1CO[C@H]2OCC[C@H]21)S(=O)(=O)c1ccc2c(c1)OCO2 [Compound 359, (3R,3aS,6aR)hexahydrofuro[2,3-b]furan-3-yl (1S,2R)-3-[(1,3-benzodioxol-5-ylsulfonyl)(isobutyl)amino]-2-hydroxy-1-[4-(2-[dimethylamino]ethoxy)benzyl]propylcarbamate] | 10 to 100 | 10 to 100 | 10 to 100 |  |  |  |  | 
12 | CNC(=O)OCCCC(C)(C)CN(C[C@@H](O)[C@H](Cc1ccc(OCc2ccccc2)cc1)NC(=O)OC1CO[C@H]2OCC[C@@H]12)S(=O)(=O)c1ccc2c(c1)OCO2 (stereo partly drawn) [Compound 361] | 1 to 10 | 10 to 100 | 10 to 100 |  |  |  |  | 
13 | CC(C)CN(C[C@@H](O)[C@H](Cc1ccc(OCc2ccccc2)cc1)NC(=O)O[C@H]1CO[C@H]2OCC[C@H]21)S(=O)(=O)c1ccc2c(c1)OCCO2 [Compound 365] | 1 to 10 | 1 to 10 | 1 to 10 |  |  |  |  | 
14 | CC(C)CN(C[C@@H](O)[C@H](Cc1ccc(OCc2cccc(C#N)c2)cc1)NC(=O)O[C@H]1CO[C@H]2OCC[C@H]21)S(=O)(=O)c1ccc2c(c1)OCO2 [Compound 367, (3R,3aS,6aR)-Hexahydrofuro[2,3-b]furan-3-yl-N (1S,2R)-1-[4-(3-cyanobenzyloxy)-benzyl]-3-i-butyl-[(3,4-methylenedioxyphenyl)sulfonyl]-amino-2-hydroxypropyl-carbamate] |  |  |  |  |  | < 1 | < 1 | 1 to 10
15 | Cc1nc(COc2ccc(C[C@H](NC(=O)O[C@H]3CO[C@H]4OCC[C@H]43)[C@H](O)CN(CC(C)C)S(=O)(=O)c3ccc4c(c3)OCO4)cc2)cs1 [Compound 368] |  |  |  |  |  | < 1 | < 1 | 1 to 10
16 | CC(C)CN(C[C@@H](O)[C@H](Cc1ccc(OCc2noc(C(C)(C)C)n2)cc1)NC(=O)O[C@H]1CO[C@H]2OCC[C@H]21)S(=O)(=O)c1ccc2c(c1)OCO2 [Compound 370] | < 1 | 1 to 10 | 1 to 10 |  |  |  |  | 
17 | CC(C)CN(C[C@@H](O)[C@H](Cc1ccc(OCc2ccc3ccccc3c2)cc1)NC(=O)O[C@H]1CO[C@H]2OCC[C@H]21)S(=O)(=O)c1ccc2c(c1)OCO2 [Compound 376, (3R,3aS,6aR)-hexahydrofuro[2,3-b]furan-3-yl (1S,2R)-3-[(1,3-benzodioxol-5-ylsulfonyl)(isobutyl)amino]-2-hydroxy-1-[4-(2-naphthylmethoxy)benzyl]propylcarbamate] | 1 to 10 | 10 to 100 | 10 to 100 |  |  |  |  | 
18 | Cc1cccc(COc2ccc(C[C@H](NC(=O)O[C@H]3CO[C@H]4OCC[C@H]43)[C@H](O)CN(CC(C)C)S(=O)(=O)c3ccc4c(c3)OCO4)cc2)c1 [Compound 377, (3R,3aS,6aR)-hexahydrofuro[2,3-b]furan-3-yl (1S,2R)-3-[(1,3-benzodioxol-5-ylsulfonyl)(isobutyl)amino]-2-hydroxy-1-{4-[(3-methylbenzyl)oxy]benzyl}propylcarbamate] | 1 to 10 | 1 to 10 | 10 to 100 |  |  |  |  | 
19 | CC(C)CN(C[C@@H](O)[C@H](Cc1ccc(OCc2cccc(F)c2)cc1)NC(=O)O[C@H]1CO[C@H]2OCC[C@H]21)S(=O)(=O)c1ccc2c(c1)OCO2 [Compound 378, (3R,3aS,6aR)-hexahydrofuro[2,3-b]furan-3-yl (1S,2R)-3-[(1,3-benzodioxol-5-ylsulfonyl)(isobutyl)amino]-1-{4-[(3-fluorobenzyl)oxy]benzyl}-2-hydroxypropylcarbamate] | 1 to 10 | 1 to 10 | 10 to 100 |  |  |  |  | 
